Laboratory results as given in ChEMBL document CHEMBL4831555, “Identification and Validation of New Interleukin-2 Ligands Using DNA-Encoded Libraries” (J Med Chem, 2021).
Calls of active or inactive are those of the source. The calls are words filed in the database; no cut-off is given here.

Experiments:
Interleukin-2 [1] = target: T1, Interleukin-2 (Homo sapiens, UniProt P60568); assay: Binding affinity to L19-IL2 (unknown origin) by fluorescence polarization assay
Albumin = Albumin (Homo sapiens, UniProt P02768); assay: Binding affinity to human serum albumin by fluorescence polarization assay
Chain of Albumin (P02768 whole entry): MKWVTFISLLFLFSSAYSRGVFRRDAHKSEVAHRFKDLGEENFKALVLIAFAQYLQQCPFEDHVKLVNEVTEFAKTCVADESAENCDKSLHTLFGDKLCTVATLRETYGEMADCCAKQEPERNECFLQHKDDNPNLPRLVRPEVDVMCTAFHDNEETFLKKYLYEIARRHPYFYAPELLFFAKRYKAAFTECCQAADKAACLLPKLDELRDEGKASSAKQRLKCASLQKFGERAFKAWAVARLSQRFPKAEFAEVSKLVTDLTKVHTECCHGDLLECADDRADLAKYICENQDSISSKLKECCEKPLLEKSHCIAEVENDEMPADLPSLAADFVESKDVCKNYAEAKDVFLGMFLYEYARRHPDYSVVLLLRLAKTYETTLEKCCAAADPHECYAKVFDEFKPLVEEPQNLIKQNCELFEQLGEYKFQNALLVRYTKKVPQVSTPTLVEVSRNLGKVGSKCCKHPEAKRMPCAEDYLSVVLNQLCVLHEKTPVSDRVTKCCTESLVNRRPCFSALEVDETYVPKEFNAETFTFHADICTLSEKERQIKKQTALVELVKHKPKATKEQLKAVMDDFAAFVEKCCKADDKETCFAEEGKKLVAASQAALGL

[2] = Inhibition of IL2/IL-2Ralpha (unknown origin) interaction; parameters: species or system Homo sapiens
Tumor necrosis factor = Tumor necrosis factor (Homo sapiens, UniProt P01375); assay: Binding affinity to TNF (unknown origin)
Chain of Tumor necrosis factor (P01375 whole entry): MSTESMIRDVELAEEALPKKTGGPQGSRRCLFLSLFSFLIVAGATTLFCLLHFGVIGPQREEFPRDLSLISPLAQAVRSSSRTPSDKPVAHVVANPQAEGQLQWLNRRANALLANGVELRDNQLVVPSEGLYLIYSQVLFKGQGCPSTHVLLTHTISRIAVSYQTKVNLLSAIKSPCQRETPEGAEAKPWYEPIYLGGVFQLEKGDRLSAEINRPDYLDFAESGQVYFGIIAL

[3] = Binding affinity to AGP (unknown origin) by fluorescence polarization assay; parameters: species or system Homo sapiens
Interleukin-2 [4] = target: T1, Interleukin-2; assay: Binding affinity to IL2 (unknown origin) preincubated for 15 mins followed by NARA1 addition and measured after 1 hr in presence of NARA1 by ELISA
[5] = target: Interleukin-15 (Homo sapiens) (UniProt P40933); assay: Binding affinity to IL-15 (unknown origin)
Chain of Interleukin-15 (Homo sapiens) (P40933 whole entry): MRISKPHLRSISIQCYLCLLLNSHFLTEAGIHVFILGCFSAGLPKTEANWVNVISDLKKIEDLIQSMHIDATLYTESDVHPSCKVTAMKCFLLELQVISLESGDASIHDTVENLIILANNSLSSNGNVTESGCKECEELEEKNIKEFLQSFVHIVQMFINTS

Interleukin-2 [6] = target: T1, Interleukin-2; assay: Binding affinity to IL2 (unknown origin) by SPR assay

T1 sequence (P60568 whole entry): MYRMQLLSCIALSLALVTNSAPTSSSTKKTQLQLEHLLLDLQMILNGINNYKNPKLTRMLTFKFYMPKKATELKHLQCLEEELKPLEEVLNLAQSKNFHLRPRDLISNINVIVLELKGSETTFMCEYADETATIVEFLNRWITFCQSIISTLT

Row | Kd (Interleukin-2 [1]) [nM] | Kd (Albumin) [nM] | SMILES | further results
1 | 920 | 1700 | O=C(N[C@@H](Cc1ccc(O)c(F)c1)C(=O)O)c1cc2c(F)cccc2[nH]1 | –
2 | 2200 | 1000 | O=C(N[C@@H](Cc1ccc(O)c(I)c1)C(=O)O)c1cc2c(F)cccc2o1 | –
3 | 210 | 220 | O=C(N[C@H](Cc1ccc(O)c(I)c1)C(=O)O)c1cc2c(F)cccc2[nH]1 | –
4 | 510 | 820 | O=C(N[C@@H](Cc1ccc(O)c(I)c1)C(=O)O)c1c[nH]c2cccc(F)c12 | –
5 | 300 | 780 | O=C(N[C@@H](Cc1ccc(O)c(Br)c1)C(=O)O)c1cc2c(F)cccc2[nH]1 | –
6 | 710 | 7200 | N=C(N)NCCC[C@@H](NC(=O)[C@@H](Cc1ccc(O)c(I)c1)NC(=O)c1cc2c(F)cccc2[nH]1)C(=O)O | Kd [3]: 4000 nM
7 | 280 | 170 | O=C(N[C@@H](Cc1ccc(O)c(I)c1)C(=O)O)c1cc2ccc(F)cc2[nH]1 | –
8 | 1300 | 430 | COc1ccc(C[C@H](NC(=O)c2cc3c(F)cccc3[nH]2)C(=O)O)cc1 | –
9 | 750 | 30 | O=C(N[C@@H](Cc1ccc2ccccc2c1)C(=O)O)c1cc2c(F)cccc2[nH]1 | –

The next lines start with the molecule.

Row | SMILES | Kd (Interleukin-2 [1]) [nM] | Kd (Albumin) [nM] | further results
10 | O=C(N[C@@H](Cc1ccc(O)c(I)c1)C(=O)O)c1cc2cccc(F)c2[nH]1 | 390 | 210 | –
11 | CC(C)C[C@@H](NC(=N)N)C(=O)NCC(=O)N1CCC(c2cc(-c3ccc(OCc4ccc(C(=O)O)o4)c(Cl)c3Cl)nn2C)CC1 | – | – | IC50 [2]: 60 nM
12 | O=C(N[C@@H](Cc1ccc(I)cc1)C(=O)O)c1cc2c(F)cccc2[nH]1 | 640 | 70 | –
13 | O=C(N[C@@H](Cc1cccc(I)c1)C(=O)O)c1cc2c(F)cccc2[nH]1 | 250 | 20 | –
14 | O=C(N[C@@H](Cc1ccc(O)c(I)c1)C(=O)O)c1cc2c(F)cccc2[nH]1 | 250 | 290 | Kd (Tumor necrosis factor): 5100 nM
15 | O=C(N[C@@H](Cc1ccc(O)c(Cl)c1)C(=O)O)c1cc2c(F)cccc2[nH]1 | 590 | 580 | –
16 | N=C(N)NCCC[C@@H](NC(=O)[C@H](Cc1ccc(O)c(I)c1)NC(=O)c1cc2c(F)cccc2[nH]1)C(=O)O | 870 | 9600 | Kd [3]: 3000 nM
17 | O=C(N[C@@H](Cc1ccc(O)c([N+](=O)[O-])c1)C(=O)O)c1cc2c(F)cccc2[nH]1 | 720 | 310 | –
18 | N=C(N)NCCC[C@H](NC(=O)[C@H](Cc1ccc(O)c(I)c1)NC(=O)c1cc2c(F)cccc2[nH]1)C(=O)O | 340 | 2000 | IC50 (Interleukin-2 [4]): 3400 nM; Kd [3]: 3400 nM; Activity [5]: inactive; Kd (Tumor necrosis factor): 4400 nM
19 | O=C(N[C@@H](Cc1ccc(O)c(I)c1)C(=O)O)c1cc2cc(F)ccc2[nH]1 | 330 | 270 | –
20 | COC(=O)[C@H](Cc1ccc(C#Cc2ccccc2)cc1)NC(=O)C[C@@H]1CCCN(C(=N)N)C1 | 1500 | 4000 | Kd [3]: 4900 nM; Kd (Interleukin-2 [6]): 22000 nM; IC50 [2]: 3000 nM
21 | O=C(N[C@@H](Cc1ccc(O)cc1)C(=O)O)c1cc2c(F)cccc2[nH]1 | 1400 | 1500 | –
22 | O=C(N[C@@H](Cc1ccc(O)c(I)c1)C(=O)O)c1cc2ccccc2[nH]1 | 420 | 390 | –
23 | N=C(N)NCCC[C@H](NC(=O)[C@@H](Cc1ccc(O)c(I)c1)NC(=O)c1cc2c(F)cccc2[nH]1)C(=O)O | 1200 | 3300 | Kd [3]: > 10000 nM
